# US12459974B2, “Bicyclic peptide ligands specific for Nectin-4” (priority 2018, dated 2025)
# Where “and” joins values, the source holds several entries; their conditions need not be identical. Identical values can stand only once. *1 amine or outer side, *2 acyl side, *3 side chain or, on linkers, in order; H or OH if unused. Where a SMILES comes first, the peptide text is derived from it. Bridges are numbered along the chain shown (N, C = ends). Roman numbers before positions name the chains, in order. [ ]: non-standard residue; d: D form. The star is where a group is joined. ξ: configuration not given here. TATA = O=C(CC[*:1])N1CN(C(=O)CC[*:2])CN(C(=O)CC[*:3])C1; Dolaproine = CO[C@@H]([C@@H]1CCCN1)[C@@H](C)C(=O)O; X1 = CC[C@H](C)C(C(CC(=O)[*:2])OC)N(C)[*:1]; 1Nal = N[C@@H](Cc1cccc2ccccc12)C(=O)O; X3 = O=C(CCCC(=O)[*:2])NCCC(=O)[*:1]; PABC = O=C(OCc1ccc(N[*:1])cc1)[*:2]; Hyp = O=C(O)[C@@H]1C[C@@H](O)CN1; hArg = N=C(N)NCCCC[C@H](N)C(=O)O; Cit = NC(=O)NCCC[C@H](N)C(=O)O; X2 = CC(N*)[C@@H](O)c1ccccc1; ξNMeV = CNC(C(=O)O)C(C)C; ξV = CC(C)C(N)C(=O)O; Sar = CNCC(=O)O
# How the values were obtained:
# NCI-H292 xenograft = assay: Example 1: in vivo efficacy in NCI-H292 xenograft (NSCLC model) in BALB/c nude mice; parameters: species or system Mus Musculus
# Description: The major endpoint was to see if the tumor growth could be delayed or mice could be cured. Tumor volume was measured three times weekly in two dimensions using a caliper, and the volume was expressed in mm^3 using the formula: V=0.5 a×b^2 where a and b are the long and short diameters of the tumor, respectively. The tumor size was then used for calculations of T/C value. The T/C value (in percent) is an indication of antitumor effectiveness; T and C are the mean volumes of the treated and control groups, respectively, on a given day. TGI was calculated for each group using the formula: TGI (%)=[1−(Ti−T0)/(Vi−V0)]×100; Ti is the average tumor volume of a treatment group on a given day, T0 is the average tumor volume of the treatment group on the day of treatment start, Vi is the average tumor volume of the vehicle control group on the same day with Ti, and V0 is the average tumor volume of the vehicle group on the day of treatment start.
# A one-way ANOVA was performed to compare tumor volume among groups, and when a significant F-statistics (a ratio of treatment variance to the error variance) was obtained, comparisons between groups were carried out with Games-Howell test. All data were analyzed using GraphPad Prism 5.0. P<0.05 was considered to be statistically significant.
# The NCI-H292 tumor cells will be maintained in medium supplemented with 10% heat inactivated fetal bovine serum at 37° C. in an atmosphere of 5% CO2 in air. The tumor cells will be routinely subcultured twice weekly. The cells growing in an exponential growth phase will be harvested and counted for tumor inoculation.
# Each mouse will be inoculated subcutaneously at the right flank with NCI-H292 tumor cells (10×10^6) in 0.2 ml of PBS for tumor development. The animals will be randomized and treatment will be started when the average tumor volume reaches approximately 158-406 mm^3.
# CTG-0896 = conditions: qw iv
# Text: (§1) To evaluate the antitumor activity of Bicycle Agent in Low Passage Champions TumorGraft Models of Human Breast, Esophageal, and Bladder Cancer in Immunocompromised mice.
# (§2) • Species: Mouse • Strain: Athymic Nude-Foxn1nu (Immune-compromised) • Source: Envigo: Indianapolis, Indiana • Gender: Female • Target age at initiation of dosing: At least 6-8 weeks of age • Target weight at initiation of dosing: At least 18 grams • Acclimation period: 3 days Experimental Design
# (§3) Pre-study Animals: When sufficient stock animals reach 1.0-1.5 cm^3, tumors will be harvested for re-implantation into pre-study animals. Pre-study animals will be implanted unilaterally on the left flank with tumor fragments harvested from stock animals. Each animal is implanted from a specific passage lot and documented.
# (§4) Study Animals: Pre-study tumor volumes are recorded for each experiment beginning seven to ten days after implantation. When tumors reach an average tumor volume of 150-300 mm^3, animals will be matched by tumor volume into treatment or control groups to be used for dosing and dosing initiated on Day 0.
# CTG-1171 = conditions: qw iv
# Text: as §1, §2, §3, §4
# CTG-1106 = conditions: qw iv
# Text: as §1, §2, §3, §4
# CTG-1771 = conditions: qw iv
# Text: as §1, §2, §3, §4
# A549 xenograft = assay: Example 9.1: in vivo efficacy in A549 xenograft in Balb/c nude mice; parameters: species or system Mus Musculus; conditions: day 14
# [1] = 3 mpk biw iv, day 14 (Table 13)
compound,measurement,setting,value
"CC[C@H](C)C(C(CC(=O)N1CCC[C@H]1[C@H](OC)[C@@H](C)C(=O)NC(C)[C@@H](O)c1ccccc1)OC)N(C)C(=O)[C@@H](NC(=O)C(C(C)C)N(C)C(=O)OCc1ccc(NC(=O)[C@H](CCCNC(N)=O)NC(=O)C(NC(=O)CCCC(=O)NCCC(=O)N(C)CC(=O)N(C)CC(=O)N(C)CC(=O)N(C)CC(=O)N(C)CC(=O)N(C)CC(=O)N(C)CC(=O)N(C)CC(=O)N(C)CC(=O)N(C)CC(=O)N[C@H]2CSCCC(=O)N3CN4CN(C3)C(=O)CCSC[C@H](NC(=O)[C@@H](CC(=O)O)NC(=O)[C@H](Cc3cccc5ccccc35)NC(=O)[C@@H]3CCCN3C2=O)C(=O)N[C@@H](CCSC)C(=O)N[C@@H](CCCCNC(=N)N)C(=O)N[C@@H](CC(=O)O)C(=O)N[C@@H](Cc2c[nH]c3ccccc23)C(=O)N[C@@H](CO)C(=O)N[C@@H]([C@@H](C)O)C(=O)N2CCC[C@H]2C(=O)N2C[C@H](O)C[C@H]2C(=O)N[C@@H](Cc2c[nH]c3ccccc23)C(=O)N[C@H](C(N)=O)CSCCC4=O)C(C)C)cc1)C(C)C (stereo partly drawn) [BCY8245, MMAE-PABC-Cit-Val-Glutaryl-BCY8234] (I: [Sar][Sar][Sar][Sar][Sar][Sar][Sar][Sar][Sar][Sar]CP[1Nal][dD]CM[hArg]DWSTP[Hyp]WC-NH2 / II: [ξV][Cit][PABC][ξNMeV]V[X1][Dolaproine]-X2; linker I:11-I:15-I:25 via TATA; linker I:N-II:N via X3)",antitumor activity (in words),NCI-H292 xenograft; 1 mg/kg qw,didn't produce significant antitumor activity
same,Tumor volume,"NCI-H292 xenograft; 1/3/5 mpk qw iv, day 0",404 ± 65 mm^3
same,Tumor volume,"NCI-H292 xenograft; 1/3/5 mpk qw iv, day 2",391 ± 42 mm^3
same,Tumor volume,"NCI-H292 xenograft; 1/3/5 mpk qw iv, day 4",542 ± 14 mm^3
same,Tumor volume,"NCI-H292 xenograft; 1/3/5 mpk qw iv, day 7",721 ± 136 mm^3
same,Tumor volume,"NCI-H292 xenograft; 1/3/5 mpk qw iv, day 9",762 ± 115 mm^3
same,Tumor volume,"NCI-H292 xenograft; 1/3/5 mpk qw iv, day 11",607 ± 95 mm^3
same,Tumor volume,"NCI-H292 xenograft; 1/3/5 mpk qw iv, day 14",614 ± 89 mm^3
same,Tumor volume,"NCI-H292 xenograft; 1/3/5 mpk qw iv, day 16",626 ± 93 mm^3
same,Tumor volume,"NCI-H292 xenograft; 1/3/5 mpk qw iv, day 18",611 ± 93 mm^3
same,T/C,"NCI-H292 xenograft; 1/3/5 mpk qw iv, day 21",30.4%
same,TGI,"NCI-H292 xenograft; 1/3/5 mpk qw iv, day 21",85.7%
same,Tumor volume,"NCI-H292 xenograft; 1/3/5 mpk qw iv, day 21",654 ± 152 mm^3
same,Tumor volume,"NCI-H292 xenograft; 1/3/5 mpk qw iv, day 23",732 ± 139 mm^3
same,Tumor volume,"NCI-H292 xenograft; 1/3/5 mpk qw iv, day 25",755 ± 132 mm^3
same,Tumor volume,"NCI-H292 xenograft; 1/3/5 mpk qw iv, day 28",713 ± 114 mm^3
same,Tumor volume,"NCI-H292 xenograft; 1/3/5 mpk qw iv, day 30",762 ± 165 mm^3
same,Tumor volume,"NCI-H292 xenograft; 1/3/5 mpk qw iv, day 32",968 ± 290 mm^3
same,Tumor volume,"NCI-H292 xenograft; 1/3/5 mpk qw iv, day 35",1119 ± 216 mm^3
same,Tumor volume,"NCI-H292 xenograft; 3 mpk biw iv, day 0 (Table 9)",162 ± 13 mm^3
same,Tumor volume,"NCI-H292 xenograft; 3 mpk biw iv, day 2 (Table 9)",243 ± 19 mm^3
same,Tumor volume,"NCI-H292 xenograft; 3 mpk biw iv, day 4 (Table 9)",211 ± 12 mm^3
same,Tumor volume,"NCI-H292 xenograft; 3 mpk biw iv, day 7 (Table 9)",101 ± 11 mm^3
same,Tumor volume,"NCI-H292 xenograft; 3 mpk biw iv, day 9 (Table 9)",100 ± 8 mm^3
same,Tumor volume,"NCI-H292 xenograft; 3 mpk biw iv, day 11 (Table 9)",87 ± 7 mm^3
same,Tumor volume,"NCI-H292 xenograft; 3 mpk biw iv, day 14 (Table 9)",65 mm^3 and 65 ± 3 mm^3
same,T/C,NCI-H292 xenograft; [1],6.9%
same,TGI,NCI-H292 xenograft; [1],112.2%
same,Tumor volume,"NCI-H292 xenograft; 3 mpk qw iv, day 0 (Table 9)",160 ± 5 mm^3
same,Tumor volume,"NCI-H292 xenograft; 3 mpk qw iv, day 2 (Table 9)",220 ± 11 mm^3
same,Tumor volume,"NCI-H292 xenograft; 3 mpk qw iv, day 4 (Table 9)",266 ± 15 mm^3
same,Tumor volume,"NCI-H292 xenograft; 3 mpk qw iv, day 7 (Table 9)",218 ± 23 mm^3
same,Tumor volume,"NCI-H292 xenograft; 3 mpk qw iv, day 9 (Table 9)",167 ± 10 mm^3
same,Tumor volume,"NCI-H292 xenograft; 3 mpk qw iv, day 11 (Table 9)",161 ± 36 mm^3
same,Tumor volume,"NCI-H292 xenograft; 3 mpk qw iv, day 14 (Table 9)",149 mm^3 and 149 ± 43 mm^3
same,T/C,"NCI-H292 xenograft; 3 mpk qw iv, day 14 (Table 13)",15.8%
same,TGI,"NCI-H292 xenograft; 3 mpk qw iv, day 14 (Table 13)",101.4%
same,Tumor volume,"NCI-H292 xenograft; 5 mpk qw iv, day 0 (Table 9)",160 ± 9 mm^3
same,Tumor volume,"NCI-H292 xenograft; 5 mpk qw iv, day 2 (Table 9)",176 ± 7 mm^3
same,Tumor volume,"NCI-H292 xenograft; 5 mpk qw iv, day 4 (Table 9)",191 ± 3 mm^3
same,Tumor volume,"NCI-H292 xenograft; 5 mpk qw iv, day 7 (Table 9)",105 ± 8 mm^3
same,Tumor volume,"NCI-H292 xenograft; 5 mpk qw iv, day 9 (Table 9)",82 ± 3 mm^3
same,Tumor volume,"NCI-H292 xenograft; 5 mpk qw iv, day 11 (Table 9)",91 ± 14 mm^3
same,Tumor volume,"NCI-H292 xenograft; 5 mpk qw iv, day 14 (Table 9)",83 mm^3 and 83 ± 8 mm^3
same,T/C,"NCI-H292 xenograft; 5 mpk qw iv, day 14 (Table 13)",8.8%
same,TGI,"NCI-H292 xenograft; 5 mpk qw iv, day 14 (Table 13)",109.8%
same,antitumor activity (in words),NCI-H292 xenograft; after increasing the dosage to 3 mg/kg from day 7,obvious antitumor activity
same,efficacy (in words),NCI-H292 xenograft; after increasing the dosage to 5 mg/kg on day 21,not further improved
same,anti-tumour activity (in words),"NCI-H292 xenograft; mouse, in vivo",good anti-tumour activity
same,efficacy (in words),CTG-0896,excellent efficacy evoking tumor regression
same,efficacy (in words),CTG-1171,excellent efficacy evoking tumor regression
same,efficacy (in words),CTG-1106,excellent efficacy evoking tumor regression
same,efficacy (in words),CTG-1771,excellent efficacy evoking tumor regression
same,TGI,A549 xenograft; 3 mg/kg biw,90.8%
same,Tumor volume (TV),A549 xenograft; 3 mg/kg biw,194 mm^3
same,TGI,A549 xenograft; 3 mg/kg qw,51.4%
same,Tumor volume (TV),A549 xenograft; 3 mg/kg qw,356 mm^3
same,TGI,A549 xenograft; 5 mg/kg qw,82.6%
same,Tumor volume (TV),A549 xenograft; 5 mg/kg qw,228 mm^3
